Laboratory results taken from paper PMC8708455, “Trans-ε-Viniferin Encapsulation in Multi-Lamellar Liposomes: Consequences on Pharmacokinetic Parameters, Biodistribution and Glucuronide Formation in Rats” (Nutrients, 2021).
Several values for one entry are separate records, joined by “and”; a condition that tells them apart may be missing. Equal entries are not always repeated. Where two headings read alike, the source gives them in different places. Blank lines part the entries; values can stand above or below the compound they belong to.

Assays:
[1] = Pharmacokinetic study: plasma kinetics after oral administration of free or encapsulated εVin; format: in vivo, rats; conditions: for occurrence of metabolites after oral administration: rats, both administration forms, data not shown; for AUC0-t: 0-4 h; for k el: read-out: Lambda z (converted); for MRT: read-out: MRT (mean residence time) (converted); for half-life: read-out: T½
Protocol: (§1) Experiments were conducted in accordance with Directive 2010/63/EU [51] and approved by the Bordeaux University Institutional Ethics Committee for Animal Research (IEC-AR CEEA 50, MESR approval A18380). Male Wistar rats (Janvier-LABS, Saint Berthevin, France) were maintained in controlled conditions: 12 h light/12 h dark cycle, humidity 50–60% and an ambient temperature of 24 ± 1 °C (animal facility agreement number: B33-063-917). Free access to food and water was allowed up to 16 h before experiments started. Rats were randomly divided into two groups. Group A (n = 5, average weight = 307.8 ± 7.7 g) received εVin dissolved in propylene glycol (5.25 mg/mL), while group B (n = 6, average weight = 308 ± 10.7 g) received the same dose of εVin but encapsulated in MLLs and suspended in ultra-pure water. Both solutions were administrated by oral gavage and precisely measured to reach a dose of 20 mg/kg bw of εVin. Blood was collected through the tail vein, making a slanting incision during the first collection. Rats were slightly anesthetized by isoflurane before every blood sample collection (600 µL) at the following time points: 20, 40, 60, 100, 140, 180 and 210 min after gavage. They were sacrificed at 240 min by a high dose of isoflurane and rapid exsanguination with saline solution injected in the right ventricular cardiac cavity with a peristaltic pump (10 mL/min). All blood samples were collected in heparinized tubes and centrifuged (10,000× g, 10 min) before sampling plasma. The liver, kidneys and four white adipose tissues (epididymal, retroperitoneal, mesenteric and subcutaneous) were removed, weighed and immediately immersed in liquid nitrogen. All blood and tissues samples were kept at −80 °C until analysis.
(§2) Extractions were performed as previously described with some modifications to improve quantification. For plasma extraction, 360 µL of methanol (4 °C) were added to an aliquot of 120 µL of plasma. The sample was vortexed during three minutes before centrifugation (30 min, 12,000× g, 4 °C). The supernatant (380 µL) was removed and evaporated using a SpeedVac concentrator (Labconco CentriVap, Thermo Fisher Scientific, Waltham, MA, USA). Residue was kept in −80 °C before analysis. For tissues extraction, tissues (about 0.5 g) were first cut with scalpels before being mixed with 4 mL of methanol:water (80:20, v:v). Samples were homogenized with an Ultra-Turrax homogenizer (IKA, Staufen, Deutschland) before being intensely vortexed. Then, samples were centrifuged 20 min at 10,000× g and 4 °C before sampling 3 mL of supernatant. All supernatants were evaporated using a SpeedVac concentrator and kept at −80 °C. Residues were reconstituted in 60 µL and 250 µL of methanol:water (50:50, v:v) or plasma and tissue, respectively. They were vortexed intensely and centrifuged at 12,000× g during 30 min at 4 °C before being injected the supernatant in LC-HRMS.
(§3) The quantification of εVin and the total of glucuronides (εVG) in plasma and tissues was performed as previously described with some modifications concerning the mass parameters. The U-HPLC separation was carried out with a Vanquish Flex system (Thermo Fisher Scientific, Les Ulis, France) consisting in a binary pump, an autosampler and a heated column compartment. The liquid chromatography separation was performed as previously detailed using C18 column (BEH C18 2.1 mm × 100 mm, 1.7 µm particle size, Waters, Guyancourt, France). The flow rate was set as 450 µL/min. The injection volume was 5 µL and the eluents were 0.1% formic acid in water for A and 0.1% formic acid in acetonitrile for B. The eluent B varied as follows: 0 min, 25%; 0.5 min, 25%; 3.6 min, 50%; 3.9 min, 50%; 4 min, 100%; 5.7 min, 100%; 5.8 min, 25%; 7 min, 25%. The column and sample temperature were 30 °C and 20 °C, respectively. The Exactive benchtrop Orbitrap mass spectrometer equipped with a HESI probe (both from Thermo Fisher Scientific, Bremen, Germany) was used. […]

[2] = Quantification in plasma, liver, kidneys and white adipose tissues 4 h after oral administration; format: in vivo; conditions: rats, 4 h after oral 20 mg/kg bw εVin
Protocol: as §1, §2, §3

[3] = design: method as in PMID 30400351; conditions: rats, intraperitoneal injection, cited from earlier work; for Cmax: metabolites expressed as equivalent of the native form
[4] = Literature pharmacokinetics of εVin after oral administration in mice (Kim et al.); format: in vivo; conditions: oral 40 mg/kg bw (ref 31) versus 20 mg/kg bw in this study
[5] = design: method as in PMID 27902942; conditions: mice, oral 40 mg/kg bw; cited from earlier work
[6] = design: method as in PMID 27175336; conditions: rats, oral 70 mg/kg bw, after hydrolysis with glucuronidase; cited from earlier work
[7] = rat plasma, oral 20 mg/kg bw εVin, encapsulated form (MLLs)
[8] = rat plasma, oral 20 mg/kg bw εVin, free form
[9] = rat plasma, oral 20 mg/kg bw εVin, free form, 20 mg/kg
[10] = male, Wistar, rat, plasma, po, 20 mg/kg, rat plasma, oral 20 mg/kg bw εVin, encapsulated form (MLLs)
[11] = male, Wistar, rat, plasma, po, 20 mg/kg, rat plasma, oral 20 mg/kg bw εVin, free form

occurrence of metabolites after oral administration [1]: largely in majority
Compound: O=C(O)[C@H]1O[C@@H](Oc2cc(/C=C/c3ccc(O)cc3)c3c(c2)O[C@H](c2ccc(O)cc2)[C@H]3c2cc(O)cc(O)c2)[C@H](O)[C@@H](O)[C@@H]1O [V2G]

increase of T1/2 by the encapsulation procedure ([1]; rat plasma, encapsulated versus free form, p < 0.05): ~3 times | AUC0–∞ [1, 7]: 432,315.4 ± 106,406.4 pmol/mL/min | Cmax [1, 7]: 1750 ± 876 nM | Lambda z [1, 7]: 0.0074 ± 0.0036 * min^−1 | Tmax [1, 7]: 1.67 h | AUC0-t [1, 7]: 307,086.4 ± 316,383.9 pmol/mL/min | T½ ([1]; rat plasma, oral 20 mg/kg bw εVin, encapsulated form (MLLs), 20 mg/kg): 1.98 ± 1.08 h | AUC0–∞ [1, 8]: 264,191.0 ± 123,786.4 pmol/mL/min | Cmax [1, 8]: 1670 ± 1100 nM | Lambda z [1, 8]: 0.0198 ± 0.0056 min⁻¹ | MRT (mean residence time) [1, 8]: 2.062 ± 0.2 h | Tmax [1, 8]: 1.67 h | AUC0-t [1, 8]: 245,827.3 ± 114,219.8 pmol/mL/min | T½ [1, 9]: 0.633 ± 0.183 h and 0.637 ± 0.187 h | maximal plasma concentration of glucuronides relative to the aglycone (native) form ([1]; rat plasma, oral 20 mg/kg bw εVin, free form, listed as glucuronide forms, 20 mg/kg): more than 100 times | maximal plasma concentration of glucuronides relative to the aglycone (native) form ([1]; rat plasma, oral 20 mg/kg bw εVin, free form, listed as total glucuronides, 20 mg/kg): 108 times | concentration in kidneys ([2]; encapsulated form): 114 ± 12 pmol/g of tissue | concentration in liver ([2]; encapsulated form): 1206 ± 304 pmol/g of tissue | concentration in mesenteric adipose tissue ([2]; encapsulated form): 213 ± 81 pmol/g of tissue | concentration in plasma at 4 h ([2]; encapsulated form): 700 ± 175 nM | concentration in kidneys ([2]; free form): 76 ± 39 pmol/g of tissue | concentration in kidneys relative to the native molecule ([2]; free form): 14 times | concentration in liver ([2]; free form): 604 ± 320 pmol/g of tissue | concentration in liver relative to the native molecule ([2]; free form): 60 times | concentration in mesenteric adipose tissue ([2]; free form): 108 ± 75 pmol/g of tissue | concentration in plasma at 4 h ([2]; free form): 317 ± 186 nM | concentration in subcutaneous adipose tissue ([2]; free form): 105 ± 83 pmol/g of tissue
Compound: Trans-ε-viniferin-glucuronide [εVG]
Cmax [3]: 5160 ng/mL | Tmax [3]: 1 h

occurrence of metabolites after oral administration [1]: traces
Compound: O=C(O)C1OC(Oc2ccc(C=Cc3cc(O)cc4c3C(c3cc(O)cc(O)c3)C(c3ccc(O)cc3)O4)cc2)C(O)C(O)C1O (stereo not drawn) [V4G]

Cmax [1, 10]: 11.7 ± 7.3 nM | k el [1, 10]: 0.000137 s⁻¹ | MRT [1, 10]: 3.27 h | Tmax ([1]; male, Wistar, rat, plasma, po, 20 mg/kg, rat plasma, oral 20 mg/kg bw εVin, encapsulated form (MLLs), read-out: Tmax (converted)): 0.333 h | half-life [1, 10]: 1.91 ± 1.34 h | Cmax [1, 11]: 15 ± 11 nM | k el [1, 11]: 0.000345 s⁻¹ | MRT [1, 11]: 2.12 h | Tmax ([1]; male, Wistar, rat, plasma, po, 20 mg/kg, rat plasma, oral 20 mg/kg bw εVin, free form, read-out: Tmax (converted)): 1 h | half-life [1, 11]: 0.917 ± 0.565 h | AUC0–∞ [1, 7]: 1660.1 ± 1313.1 pmol/mL/min | AUC0-t [1, 7]: 1009.8 ± 328.3 pmol/mL/min | AUC0–∞ [1, 8]: 1919.7 ± 955.2 pmol/mL/min | AUC0-t [1, 8]: 1689.1 ± 682.0 pmol/mL/min | Cmax [1, 9]: 15.3 ± 10.5 nM | concentration in kidneys ([2]; free form): ≤ 10 pmol/g of tissue | concentration in liver ([2]; free form): ≤ 10 pmol/g of tissue | concentration in mesenteric adipose tissue ([2]; free form): 92 ± 84 pmol/g of tissue | concentration in subcutaneous adipose tissue ([2]; free form): 23 ± 12 pmol/g of tissue | concentration in the three other adipose depots (epididymal, retroperitoneal, subcutaneous) ([2]; free form): around 20 pmol/g of tissue | AUC0-∞ of the literature study relative to the values of this study [4]: 3.6 times
Compound: Oc1ccc(/C=C/c2cc(O)cc3c2[C@@H](c2cc(O)cc(O)c2)[C@H](c2ccc(O)cc2)O3)cc1 [εVin, Trans-ε-viniferin]
bioavailability [5]: 0.77% | maximal concentration (Cmax) [5]: 42 ng/mL | Cmax [3]: 3090 ng/mL

Compound: Oc1ccc([C@H]2Oc3ccc(/C=C/c4cc(O)cc(O)c4)cc3[C@@H]2c2cc(O)cc(O)c2)cc1 [δ-viniferin]
concentration of glucuronide metabolites relative to the native form [6]: up to 7 fold

occurrence of metabolites after oral administration [1]: traces
Compound: O=C(O)C1OC(Oc2ccc(C3Oc4cc(O)cc(C=Cc5ccc(O)cc5)c4C3c3cc(O)cc(O)c3)cc2)C(O)C(O)C1O (stereo not drawn) [V1G]
